Experimental data: US20150038674A1, “USE OF GLP-2 ANALOGUES IN PULMONARY DISEASES FOR THERAPEUTIC PURPOSE” (priority 2013, published 2015)
Marks after values point to notes of the source that are not given here. Starred links: 1 amine or outer side, 2 acyl side, 3 side chain; linkers in the order of their positions; H or OH if unused. Positions of bridges follow the written chain, without caps; N, C: chain ends. Non-standard residues stand in square brackets, D forms with d. Residues, ends and D or L forms follow the SMILES beside them. Chains are numbered I, II in the order given. Actinocin(9to1) = Cc1c2oc3c(C)ccc(C(=O)[*:1])c3nc-2c(C(=O)[*:2])c(N)c1=O; NMeV = CN[C@H](C(=O)O)C(C)C; Sar = CNCC(=O)O

Experiments:
[1] = system: apoptotic cells in the lung (alveolar areas); assay: TUNEL apoptotic index in alveolar area of lung; assay type: in vivo, mouse; conditions: male BALB/c mice, teduglutide 200 μg/kg s.c. every 12 hours for 10 days, TNF-alpha 15 μg/kg i.p., Act D 800 μg/kg i.p.
Experimental: (§1) In this study, 8-10 months male BALB/c mice were used. Mice were divided into 6 groups: • Group I (Control group): Mice injected with 0.1% dimethylsulfoxide (DMSO) and phosphate buffered saline (PBS, pH 7.4) via intraperitoneal way. • Group II: Mice injected with 15 μg/kg TNF-alpha (dissolved in PBS) with single dose via intraperitoneal way. • Group III: Mice injected with 800 μg/kg Act D (dissolved in DMSO) with single dose via intraperitoneal way. • Group IV: The mice given with TNF-alpha 2 minutes after Act D is administered in doses and mode of administrations above. • Group V: The mice given with 200 μg/kg teduglutide (dissolved in PBS) for 10 days uninterruptedly in every 12 hours via subcutaneous injection. • Group VI: TNF-alpha was injected to mice to which teduglutide was administered for 10 days as mentioned above, 2 minutes after Act D was administered in 11th day in above doses and mode of administration.
(§2) The mice in Group V were cut with cervical dislocation 16.5 hours after the last administration, and the mice in other groups were cut 4.5 hours after the last administration, and the lung samples were taken for microscopic and biochemical analysis.
TUNEL (Terminal deoxynucleotidyl transferase-mediated dUTP-nick end labeling assay) method was used to identify apoptotic cells in the lung. In this method, left lung sections fixed with 10% neutral formalin for 24 hours were used. Lung sections in thickness of 5 μm were treated with proteinase K (20 ug/ml) following rehydratation, and then endogenous peroxidase activity was blocked with 3% H2O2.
Marking step was carried out with commercially available ApopTag Plus Peroxidase kit (Millipore). The reaction in apoptotic cells was developed with […]. Following this process, cell nuclei were made visible in staining with methylene green. Mice breast tissue was used as positive control. […] TUNEL positive cells in the lung were analyzed under light microscope at 400× magnification. The apoptotic index value was calculated as a percentage of apoptotic cells in total number of cells.

active caspase-3 = assay: Active caspase-3 immunoreactivity (labeling index) in alveolar area; assay type: in vivo, mouse; conditions: male BALB/c mice, active caspase-3 immunoreactive cells, teduglutide 200 μg/kg s.c. every 12 hours for 10 days, TNF-alpha 15 μg/kg i.p., Act D 800 μg/kg i.p.
Experimental: as §1, §2
For the identification of apoptosis in the tissue, as another way, active caspase-3 immunoreactivity was tested. For this purpose, streptavidin-biotin-peroxidase immune method was used. Sections of left lung fixed with neutral formalin were treated with 0.3% triton X-100 for 10 minutes after dewaxing and rehydratation. Following this process, they heated in 10 mM citrate buffer (pH 6.0) for 15 min in a microwave oven. The sections were incubated for 10 minutes with 3% H2O2 for blocking of endogenous peroxidase activity. The next steps were performed according to the instructions in Histostain Plus Broad Spectrum Kit (Invitrogen). The sections were incubated with polyclonal rabbit active caspase 3 antibody (1:50 in PBS, Millipore) for 1 hour at room temperature.
Immunoreaction was developed with 3-amino-9-ethylcarbazole. The sections were stained with Mayer's hematoxilin following immunostaining. PBS or nonspecific rabbit IgG primary antibody were used as negative controls.
Quantitative analysis of immunoreactive cells labeled with caspase-3 antibody was made with light microscope at ×400 magnification. For the immunoreactive cell count, 5 randomly selected fields of alveolar areas without bronchioles were examined in the lung sections of each mouse. The labeling index for caspase-3 was calculated as a percentage of immunoreactive cells in the total number of cells counted per section.

GSH (glutathione) = assay: GSH level in lung homogenate (Beutler method); assay type: in vivo, mouse; conditions: lung tissue, male BALB/c mice, Mean ± SD, same dosing groups
lipid peroxidation (LPO) = assay: Lipid peroxidation (LPO) level in lung homogenate; assay type: in vivo, mouse; conditions: lung tissue, male BALB/c mice, Mean ± SD, same dosing groups
catalase (CAT) = assay: Catalase activity in lung tissue; assay type: in vivo, mouse; conditions: male BALB/c mice, Mean ± SD, same dosing groups
[2] = system: superoxide dismutase (SOD); assay: Superoxide dismutase activity in lung tissue; assay type: in vivo, mouse; conditions: male BALB/c mice, Mean ± SD, same dosing groups
[3] = system: glutathione peroxidase (GPx); assay: Glutathione peroxidase activity in lung tissue; assay type: in vivo, mouse; conditions: male BALB/c mice, Mean ± SD, same dosing groups
myeloperoxidase (MPO) = assay: Myeloperoxidase activity in lung tissue; assay type: in vivo, mouse; conditions: male BALB/c mice, Mean ± SD, same dosing groups
Na^+K^+ATPase = assay: Na+K+ATPase activity in lung tissue; assay type: in vivo, mouse; conditions: male BALB/c mice, Mean ± SD, same dosing groups
xanthine oxidase (XO) = assay: Xanthine oxidase activity in lung tissue; assay type: in vivo, mouse; conditions: male BALB/c mice, Mean ± SD, same dosing groups
tissue factor (TF) = assay: Tissue factor activity in lung tissue (Quick's one-stage method); assay type: in vivo, mouse; conditions: male BALB/c mice, Mean ± SD, Quick's one-stage method using normal plasma, same dosing groups
[4] = system: patients with short bowel syndrome; conditions: 11 patients with short bowel syndrome, s.c. 0.4 mg 3 times a day, 13, 26, 52 weeks; cited from earlier work
[5] = system: alveolar wall of mice lung; assay: Hematoxylin-eosin histology of lung sections (alveolar wall damage); assay type: in vivo, mouse; conditions: HE-stained lung sections, male BALB/c mice; same dosing groups
Experimental: TNF-alpha and/or Act D was administered to mice in the experiments. Act D is used in order to increase the cytotoxic effect of TNF-alpha in lung tissues. In this way, pulmonary epithelial, endothelial and mesenchymal cells were damaged in mouse lung by stimulating apoptosis, inflammation and oxidative stress. TNF-alpha. Act D and especially the combination of TNF-alpha/Act D cause the damage in alveolar wall of mice lung; it reduces the tissue factor (TF) and sodium-potassium ATPase (Na-K-ATPase) activities while stimulating apoptosis in pulmonary endotheliaL % epithelial cells, myeloperoxidase (MPO) activity in tissue and oxidative stress.
(§3) In this study, 8-10 months male BALB/c mice were used. […]

type II pneumocytes = assay: Type II pneumocyte count (Pro-SPC immunostaining) in alveolar epithelium; assay type: in vivo, mouse; conditions: male BALB/c mice, Pro-SPC immunoreactive cells in total number of cells, same dosing groups
Experimental: as §3
Strep-ABC immunostaining method was used in order to determine proliferative cells in the alveolar area. […] Furthermore, since it is known that type II pneumocytes give new ones to replace type I and type II pneumocytes which die or lose function in the damaged alveolar epithelium, the number of type II pneumocytes in the alveolar area were analyzed in the experimental groups. […] Proliferation index and number of type II pneumocytes in the alveolar area were calculated as ratio of immunoreactive cells in total number of cells, and the value was expressed as %. […]

[6] = system: patients having intestinal damage with short bowel syndrome; conditions: cited from earlier work
[7] = system: patients with short bowel syndrome; conditions: s.c. 0.05 or 0.10 mg/kg/day; cited from earlier work
[8] = humans, short bowel syndrome, teduglutide s.c. 0.05 or 0.10 mg/kg/day, 52 weeks

Compound	apoptotic index in alveolar areas in mice [1]	caspase-3 index in alveolar areas in mice (active caspase-3)	GSH (GSH (glutathione))	LPO (lipid peroxidation (LPO))	CAT (catalase (CAT))	SOD [2]	GPx [3]	Na^+K^+ATPase (Na^+K^+ATPase)	TF (tissue factor (TF))	other results
TNF-α	0.41±0.04%	0.08±0.005%	10.16 ± 2.66^a nmol GSH/mg protein	4.51 ± 0.50^b nmol MDA/mg protein	42.44 ± 5.79^a U/mg protein	6.99 ± 2.57^f U/mg protein	453.86 ± 52.35^c U/g protein	3.96 ± 0.71^a nmol Pi/mg protein/h	49.08 ± 10.40^d sec	apoptotic index in alveolar areas in mice ([1]; listed as TNF-alpha): no significant change in apoptotic index; GSH (GSH (glutathione); listed as TNF-alpha): increased significantly; LPO (lipid peroxidation (LPO); listed as TNF-alpha): increased significantly; MPO (myeloperoxidase (MPO); listed as TKF-α): 193.80 ± 31.28^c mU/g tissue; MPO (myeloperoxidase (MPO); listed as TNF-alpha): increased significantly; XO (xanthine oxidase (XO)): 21.53 ± 3.28^a U/mg protein; XO (xanthine oxidase (XO); listed as TNF-alpha): increased significantly
human GLP-2: Human glucagon like peptide 2, 33 amino acid sequence (SEQUENCE ID No. 1) (HADGSFSDEMNTILDNLAARDFINWLIQTKIT; listed as Homo sapiens)	–	–	–	–	–	–	–	–	–	intestinal morphology, absorption, renal functions, bone mineral density and muscle functions [4]: does not change
Cc1c2oc3c(C)ccc(C(=O)N[C@@H]4C(=O)N[C@H](C(C)C)C(=O)N5CCC[C@H]5C(=O)N(C)CC(=O)N(C)[C@@H](C(C)C)C(=O)O[C@@H]4C)c3nc-2c(C(=O)N[C@@H]2C(=O)N[C@H](C(C)C)C(=O)N3CCC[C@H]3C(=O)N(C)CC(=O)N(C)[C@@H](C(C)C)C(=O)O[C@@H]2C)c(N)c1=O [Act D, Actinomycin D] (I: T[dV]P[Sar][NMeV] / II: T[dV]P[Sar][NMeV]; ester I:1-I:C, II:1-II:C; linker I:N-II:N via Actinocin(9to1))	–	0.02±0.005%	–	–	29.76 ± 4.34^b U/mg protein	8.21 ± 2.29^g U/mg protein	473.28 ± 78.26^c U/g protein	3.63 ± 1.13^a nmol Pi/mg protein/h	50.50 ± 8.06^d sec	–
CC[C@H](C)[C@H](NC(=O)[C@H](Cc1ccccc1)NC(=O)[C@H](CC(=O)O)NC(=O)[C@H](CCCNC(=N)N)NC(=O)[C@H](C)NC(=O)[C@H](C)NC(=O)[C@H](CC(C)C)NC(=O)[C@H](CC(N)=O)NC(=O)[C@H](CC(=O)O)NC(=O)[C@H](CC(C)C)NC(=O)[C@@H](NC(=O)[C@@H](NC(=O)[C@H](CC(N)=O)NC(=O)[C@H](CCSC)NC(=O)[C@H](CCC(=O)O)NC(=O)[C@H](CC(=O)O)NC(=O)[C@H](CO)NC(=O)[C@H](Cc1ccccc1)NC(=O)[C@H](CO)NC(=O)CNC(=O)[C@H](CC(=O)O)NC(=O)CNC(=O)[C@@H](N)Cc1c[nH]cn1)[C@@H](C)O)[C@@H](C)CC)C(=O)N[C@@H](CC(N)=O)C(=O)N[C@@H](Cc1c[nH]c2ccccc12)C(=O)N[C@@H](CC(C)C)C(=O)N[C@H](C(=O)N[C@@H](CCC(N)=O)C(=O)N[C@H](C(=O)N[C@@H](CCCCN)C(=O)N[C@H](C(=O)N[C@H](C(=O)N[C@@H](CC(=O)O)C(=O)O)[C@@H](C)O)[C@@H](C)CC)[C@@H](C)O)[C@@H](C)CC [Teduglutide]	no significant change in apoptotic index	0.00±0.00%	43.67 ± 8.25^c nmol GSH/mg protein	5.31 ± 1.71^b nmol MDA/mg protein	44.74 ± 7.52^d U/mg protein	7.36 ± 1.28^c U/mg protein	491.56 ± 171.49^b U/g protein	6.46 ± 1.13^a nmol Pi/mg protein/h	increases the TF activity	structure of alveolar wall / alveolar epithelium under light microscope [5]: alveoli were in better condition; caspase-3 index in alveolar areas in mice (active caspase-3; listed as teduglutide): decreased significantly in individuals previously treated with teduglutide to which TNF-alpha/Act D was administered; type II pneumocytes in alveolar epithelium of mouse lung (type II pneumocytes): 16.65±1.13%; type II pneumocytes in alveolar epithelium of mouse lung (type II pneumocytes; listed as teduglutide): significant decrease in type II pneumocyte number; GSH (GSH (glutathione); listed as teduglutide): increased significantly; MPO (myeloperoxidase (MPO)): 88.93 ± 30.32^g mU/g tissue; XO (xanthine oxidase (XO); listed as Tedoglutide): 17.46 ± 3.16^a U/mg protein; TF (tissue factor (TF); listed as Tedoglutide): 47.28 ± 9.91^d sec; reliability of long term use ([6]; 52 patients, s.c. 0.05 or 0.10 mg/kg/day for 52 weeks): reliable for long term use in humans; adverse effect: abdominal pain [6, 8]: 25%; adverse effect: headache [6, 8]: 35%; adverse effect: nausea [6, 8]: 31%; liver function tests (AST, ALT, ALP) and renal function tests (creatinine, urea, bilirubin, glomerular filtration speed) [7]: improvement in liver function tests
